According to ChEMBL document CHEMBL1914417 (Bioorg Med Chem Lett, 2011):
Where a chain is given by its changes, count along the chain named.

Experiments:
[1] = target: T1, Muscarinic acetylcholine receptor M1 (Rattus norvegicus, UniProt P08482); experiment: Agonist activity at rat muscarinic M1 receptor expressed in CHO cells; format: functional, cell-based
T1 sequence (P08482 whole entry): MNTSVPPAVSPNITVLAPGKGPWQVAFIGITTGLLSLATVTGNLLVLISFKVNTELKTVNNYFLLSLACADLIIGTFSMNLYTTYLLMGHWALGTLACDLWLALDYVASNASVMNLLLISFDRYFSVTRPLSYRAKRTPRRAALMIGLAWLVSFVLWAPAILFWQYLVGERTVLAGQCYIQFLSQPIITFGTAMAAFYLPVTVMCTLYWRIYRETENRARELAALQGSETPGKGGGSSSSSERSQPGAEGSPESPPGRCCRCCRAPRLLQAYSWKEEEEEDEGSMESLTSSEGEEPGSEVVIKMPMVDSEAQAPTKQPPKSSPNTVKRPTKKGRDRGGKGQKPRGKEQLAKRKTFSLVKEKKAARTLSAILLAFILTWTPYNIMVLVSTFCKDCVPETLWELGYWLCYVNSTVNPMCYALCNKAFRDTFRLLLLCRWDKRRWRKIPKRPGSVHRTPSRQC

[2] = target: T2, Muscarinic acetylcholine receptor M4 (Rattus norvegicus, UniProt P08485); experiment: Agonist activity at rat muscarinic M4 receptor expressed in CHO cells; format: functional, cell-based
T2 sequence (P08485 whole entry): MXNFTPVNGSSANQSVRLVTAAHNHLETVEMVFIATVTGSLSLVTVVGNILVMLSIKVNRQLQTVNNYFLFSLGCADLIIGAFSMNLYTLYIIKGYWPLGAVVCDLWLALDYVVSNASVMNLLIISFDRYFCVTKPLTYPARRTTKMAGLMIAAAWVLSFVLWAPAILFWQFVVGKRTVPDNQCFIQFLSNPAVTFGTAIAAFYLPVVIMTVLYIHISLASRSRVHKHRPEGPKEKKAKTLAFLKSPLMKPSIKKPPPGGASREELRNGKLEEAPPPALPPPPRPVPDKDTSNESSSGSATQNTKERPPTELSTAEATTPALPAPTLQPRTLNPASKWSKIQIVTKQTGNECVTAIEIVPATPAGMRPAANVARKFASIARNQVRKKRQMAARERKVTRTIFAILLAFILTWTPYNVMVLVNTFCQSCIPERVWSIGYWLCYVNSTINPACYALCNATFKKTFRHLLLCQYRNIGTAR

[3] = target: T3, Muscarinic acetylcholine receptor M1 (Homo sapiens, UniProt P11229); experiment: Agonist activity at human recombinant muscarinic M1 receptor by HTS cell based assay; format: functional
T3 sequence (P11229 whole entry): T1 sequence (P08482 whole entry) with V5A, S254T, S309P, K320R, G337A, V413I

[4] = target: Muscarinic acetylcholine receptor M3 (Rattus norvegicus, UniProt P08483); experiment: Agonist activity at rat recombinant muscarinic M3 receptor by HTS cell based assay; format: functional
Sequence of Muscarinic acetylcholine receptor M3 (Rattus norvegicus, UniProt P08483) (P08483 whole entry): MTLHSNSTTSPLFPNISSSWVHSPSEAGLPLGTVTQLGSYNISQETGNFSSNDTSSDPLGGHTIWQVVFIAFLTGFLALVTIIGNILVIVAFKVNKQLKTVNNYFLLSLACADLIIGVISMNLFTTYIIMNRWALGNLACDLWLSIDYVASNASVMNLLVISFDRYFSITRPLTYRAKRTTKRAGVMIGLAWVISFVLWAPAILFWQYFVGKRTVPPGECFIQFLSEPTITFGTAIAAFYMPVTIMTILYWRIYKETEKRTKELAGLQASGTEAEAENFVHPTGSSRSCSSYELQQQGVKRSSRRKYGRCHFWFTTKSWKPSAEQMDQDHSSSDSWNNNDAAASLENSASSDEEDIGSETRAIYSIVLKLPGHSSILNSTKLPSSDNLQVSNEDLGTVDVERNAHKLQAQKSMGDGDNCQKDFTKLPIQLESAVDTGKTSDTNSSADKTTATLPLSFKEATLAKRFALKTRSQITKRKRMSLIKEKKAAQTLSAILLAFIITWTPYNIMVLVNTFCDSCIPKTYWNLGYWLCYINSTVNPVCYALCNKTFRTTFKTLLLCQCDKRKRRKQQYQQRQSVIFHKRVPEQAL

[5] = target: T4, Muscarinic acetylcholine receptor M5 (Rattus norvegicus, UniProt P08911); experiment: Agonist activity at rat recombinant muscarinic M5 receptor by HTS cell based assay; format: functional
T4 sequence (P08911 whole entry): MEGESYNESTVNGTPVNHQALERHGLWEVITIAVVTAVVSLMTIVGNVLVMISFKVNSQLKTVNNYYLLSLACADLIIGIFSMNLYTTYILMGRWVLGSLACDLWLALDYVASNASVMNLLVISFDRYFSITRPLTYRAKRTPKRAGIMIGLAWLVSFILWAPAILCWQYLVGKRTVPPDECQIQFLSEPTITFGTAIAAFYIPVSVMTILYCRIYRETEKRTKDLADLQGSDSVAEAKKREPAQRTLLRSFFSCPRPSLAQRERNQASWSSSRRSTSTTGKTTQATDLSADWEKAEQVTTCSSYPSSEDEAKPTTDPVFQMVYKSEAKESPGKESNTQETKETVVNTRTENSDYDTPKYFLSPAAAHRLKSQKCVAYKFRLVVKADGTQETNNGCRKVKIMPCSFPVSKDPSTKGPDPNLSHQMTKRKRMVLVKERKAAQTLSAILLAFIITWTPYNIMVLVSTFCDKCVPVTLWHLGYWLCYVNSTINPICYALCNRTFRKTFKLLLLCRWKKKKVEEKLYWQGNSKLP

[6] = target: Muscarinic acetylcholine receptor M3 (Homo sapiens, UniProt P20309); experiment: Agonist activity at human recombinant muscarinic M3 receptor by HTS cell based assay; format: functional
Sequence of Muscarinic acetylcholine receptor M3 (Homo sapiens, UniProt P20309) (P20309 whole entry): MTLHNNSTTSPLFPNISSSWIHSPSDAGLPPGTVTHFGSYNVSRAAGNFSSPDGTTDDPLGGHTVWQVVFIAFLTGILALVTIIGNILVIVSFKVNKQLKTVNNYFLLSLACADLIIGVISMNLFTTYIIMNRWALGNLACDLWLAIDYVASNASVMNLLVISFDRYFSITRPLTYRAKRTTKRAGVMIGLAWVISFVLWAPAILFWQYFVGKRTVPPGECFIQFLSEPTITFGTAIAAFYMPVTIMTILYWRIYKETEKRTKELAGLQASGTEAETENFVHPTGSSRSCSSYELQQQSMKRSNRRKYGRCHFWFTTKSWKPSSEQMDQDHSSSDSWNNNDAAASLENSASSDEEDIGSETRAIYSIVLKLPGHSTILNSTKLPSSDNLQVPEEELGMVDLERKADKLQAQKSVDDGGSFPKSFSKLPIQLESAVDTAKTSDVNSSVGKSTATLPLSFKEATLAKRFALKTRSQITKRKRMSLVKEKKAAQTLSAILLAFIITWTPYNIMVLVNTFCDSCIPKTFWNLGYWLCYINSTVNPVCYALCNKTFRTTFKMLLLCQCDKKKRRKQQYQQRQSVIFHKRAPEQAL

[7] = target: T5, Muscarinic acetylcholine receptor M4 (Homo sapiens, UniProt P08173); experiment: Agonist activity at human recombinant muscarinic M4 receptor by HTS cell based assay; format: functional
T5 sequence (P08173 whole entry): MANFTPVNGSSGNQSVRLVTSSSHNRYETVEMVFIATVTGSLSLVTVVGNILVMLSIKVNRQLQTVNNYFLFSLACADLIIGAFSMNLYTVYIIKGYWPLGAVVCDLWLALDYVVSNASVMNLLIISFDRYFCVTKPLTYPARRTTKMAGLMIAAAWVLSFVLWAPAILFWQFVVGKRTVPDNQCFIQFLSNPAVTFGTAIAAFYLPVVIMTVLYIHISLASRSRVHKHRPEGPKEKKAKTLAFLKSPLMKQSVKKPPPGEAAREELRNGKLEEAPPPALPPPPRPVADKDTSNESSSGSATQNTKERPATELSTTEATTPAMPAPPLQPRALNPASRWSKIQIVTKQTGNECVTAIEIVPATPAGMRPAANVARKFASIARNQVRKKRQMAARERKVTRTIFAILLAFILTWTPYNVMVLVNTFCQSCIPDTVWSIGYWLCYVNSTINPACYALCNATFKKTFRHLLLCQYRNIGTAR

SMILES | EC50 [1] [µM] | EC50 [2] [µM] | EC50 [3] [µM] | EC50 [4] [µM] | EC50 [5] [µM] | EC50 [6] [µM] | EC50 [7] [µM] | EC50 ([1]; cho) [µM]
CCOC(=O)N1CCC(N2CCC[C@@H](NC(=O)c3ccccc3C)C2)CC1 | 0.11 | > 30 | 1.3 | > 30 | > 30 | > 30 | > 30 | 
CCOC(=O)N1CCC(NCCNC(=O)c2ccccc2C)CC1 |  | > 30 | 2.3 | > 30 | > 30 | > 30 | > 30 | 0.2
